Tested on: pancreatic cancer cell line BxPC-3
Assay: In vitro survival assay (MTT) for anti-pancreatic cancer effects
Type: cell-based
Settings: Homo sapiens, BxPC-3 cells, 48 hours treatment, 0.03-30 μg/ml, read-out: IC50 (half inhibition concentration), survival of pancreatic cancer cells
Procedure: The compound 4--2,3-dimethoxy-6-methyl-5-(3,7,11-trimethyl-dodeca-2,6,10-trienyl)-cyclohex-2-enone of the formula (2) is explained below as an example for the present invention. The anti-cancer effects of 4--2,3-dimethoxy-6-methyl-5-(3,7,11-trimethyl-dodeca-2,6,10-trienyl)-cyclohex-2-enone was assessed using 3-(4,5-dimethylthiazol-2-yl)-2,5-diphenyltetrazolium bromide MTT) assay according to the anti-cancer drug screening model of National Cancer Institute (NCI) to analyze survival rates on pancreatic cancer cell line BxPC-3. […] Therefore, cyclohexenone compounds from Antrodia camphorata can be used for inhibiting the survival of pancreatic cancer cells and further be applied for the treatment of pancreatic cancer. The details of the examples are described as follows:
Inhibiting effects of pancreatic cancer cells by cyclohexenone compounds of Antrodia camphorata from example 1 were assessed according to the anticancer-drug screening model of National Cancer Institute (NCI). […] Survival of cell was analyzed using MTT assay. […]
The BxPC-3 cells were cultivated in RPMI 1640 medium supplemented with 10% fetal bovine serum, 100 IU/ml of Penicillin and […] of Streptomycin at 37° C., 5% CO2 for 24 hours. […] The absorbances were measured at 570 nm with an ELISA Reader to determine the survival rates.

SMILES: COC1=C(OC)C(O)C(C/C=C(\C)CC/C=C(\C)CCC=C(C)C)C(C)C1=O (stereo not shown) [formula 2, 4--2,3-dimethoxy-6-methyl-5-(3,7,11-trimethyl-dodeca-2,6,10-trienyl)-cyclohex-2-enone]
- IC50: 1.44 µg/mL
